From ChEMBL document CHEMBL1201862, “PubChem BioAssay data set” (2004)
Calls of active or inactive are those of the source.

Legend:
[1] = tested on: Escherichia coli; experiment: microbe, parasite or virus in culture
[2] = tested on: HEK293; experiment: EBV LMP1 TES2 canonical NF-kB signalling blockers – cell-based, HEK293, luciferase, cherry-pick, dose response (AID 588343); assay type: functional; settings: Homo sapiens
[3] = molecular target: Dual specificity tyrosine-phosphorylation-regulated kinase 1A (Rattus norvegicus, UniProt Q63470); assay type: biochemical, Homo sapiens
[4] = tested on: HEK293; experiment: cells; assay type: functional, cell-based; settings: Homo sapiens
[5] = molecular target: Nuclear receptor subfamily 0 group B member 1 (Homo sapiens, UniProt P51843); experiment: Luminescence-based cell-based high throughput dose response assay for inhibitors of the orphan nuclear receptor subfamily 0, group B, member 1 (DAX1; NR0B1). [Related pubchem assays (depositor defined):AID504766, AID504790]; assay type: functional
[6] = decrease of insulin promoter-GFP reporter – imaging, high-content screening, mouse beta cells (AID 1628); assay type: functional; settings: MIN6
[7] = tested on: BJ; experiment: BJ-TERT fibroblast viability loss – cell-based, RAS-independent, luminescence, dose response (AID 1933); assay type: functional; settings: Homo sapiens
[8] = MIN6 cell viability loss – mouse insulinoma, cytotoxicity control, dose response (AID 2122); assay type: functional;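 also: confirmatory high-throughput counterscreen run to flag cytotoxic compounds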
[9] = tested on: BJ; experiment: cells; assay type: functional, cell-based; settings: Homo sapiens
[10] = tested on: BJ; experiment: BJ-TERT-LT-ST fibroblast viability loss – cell-based, RAS-independent, luminescence, dose response (AID 1935); assay type: functional; settings: Homo sapiens;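 also: BJ fibroblasts immortalized with TERT plus LT and ST oncogenes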
[11] = DRD fibroblast viability loss – cell-based, non-viral oncogenic, luminescence, dose response (AID 1934); assay type: functional; settings: Homo sapiens
[12] = Luminescence Cell-Based Dose Retest to Confirm Inhibitors of Cancer Stem Cells. [Related pubchem assays (depositor defined):AID2717, AID2721]; assay type: functional; settings: Homo sapiens
[13] = molecular target: T1, Mannose-6-phosphate isomerase (Homo sapiens, UniProt P34949); experiment: phosphomannose isomerase inhibition – biochemical, fluorescence intensity, confirmation (AID 1535)
T1 sequence (P34949 whole entry): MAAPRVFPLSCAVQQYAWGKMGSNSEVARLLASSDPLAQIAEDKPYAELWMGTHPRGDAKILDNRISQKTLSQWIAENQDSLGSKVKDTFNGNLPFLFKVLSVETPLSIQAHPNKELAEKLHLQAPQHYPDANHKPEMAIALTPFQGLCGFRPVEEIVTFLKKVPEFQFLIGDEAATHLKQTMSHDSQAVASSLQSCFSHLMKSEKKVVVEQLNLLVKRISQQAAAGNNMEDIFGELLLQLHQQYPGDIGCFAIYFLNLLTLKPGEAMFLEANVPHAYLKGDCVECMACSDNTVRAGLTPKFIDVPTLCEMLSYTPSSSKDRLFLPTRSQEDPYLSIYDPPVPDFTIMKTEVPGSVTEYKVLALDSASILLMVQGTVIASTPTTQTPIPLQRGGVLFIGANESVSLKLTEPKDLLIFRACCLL

Chain of Nuclear receptor subfamily 0 group B member 1 (P51843 whole entry): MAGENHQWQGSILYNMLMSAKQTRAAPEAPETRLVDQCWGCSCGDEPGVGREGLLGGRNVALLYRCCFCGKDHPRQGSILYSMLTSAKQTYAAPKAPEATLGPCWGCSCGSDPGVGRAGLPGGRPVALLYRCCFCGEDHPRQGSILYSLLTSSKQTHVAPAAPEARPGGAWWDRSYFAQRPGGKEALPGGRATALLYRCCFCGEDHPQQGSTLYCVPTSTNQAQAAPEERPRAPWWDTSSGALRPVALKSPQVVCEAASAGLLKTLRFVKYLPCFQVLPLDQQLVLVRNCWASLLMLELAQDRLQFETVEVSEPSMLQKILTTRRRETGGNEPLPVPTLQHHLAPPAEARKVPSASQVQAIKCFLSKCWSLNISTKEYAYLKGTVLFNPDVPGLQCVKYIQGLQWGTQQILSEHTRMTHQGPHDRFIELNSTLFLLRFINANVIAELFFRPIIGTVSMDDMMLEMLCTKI

For `CC(Sc1nnc(-c2ccccc2F)n1C1CC1)C(=O)NCc1ccco1` (centres undefined), the AC50 [1] was 24.4 µM (active).

In the case of `CC1=C(C(=O)OCc2ccc3c(c2)OCO3)C(c2ccccc2)NC(=O)N1` (centres undefined), the AC50 [2] is reported as 6.3 µM (active) and the AC50 [3] is reported as 0.695 µM (active).

With `COc1cccc(C(=O)Nc2cc([N+](=O)[O-])ccc2N2CCN(C)CC2)c1` the AC50 [1] was 25.5 µM (active).

With `Cc1ccc2nc(NC(=O)c3ccc(Cl)s3)sc2c1` the IC50 [4] was > 67.5 µM (inactive) and the IC50 [5] was > 67.5 µM (inactive).

With `O=C(CCC1CCCC1)Nc1ccc(C(=O)NCc2cccnc2)cc1` the IC50 [6] was 0.331 µM (active), the EC50 [7] was > 150 µM (not active) and the IC50 [8] was > 16 µM (inactive). The EC50 [9] was 0.672 µM (inconclusive), the EC50 [10] was 1.53 µM (inconclusive) and the EC50 [11] was > 150 µM (not active). The AC50 [12] was 0.882 µM (active).

In the case of `Clc1nss/c1=N\c1ncccn1`, the IC50 [13] is reported as > 100 µM (inactive).
